# Experimental data taken from US8828906B2, “Active compound combinations having insecticidal and acaricidal properties” (Bayer CropScience AG, priority 2009, dated 2014).
# What was measured:
# Format in all cases: in vivo
# [1] = tested on: Phaedon cochleariae; assay: Phaedon cochleariae larvae test; settings: cabbage leaves sprayed
# Procedure: (§1) Solvents: 78 parts by weight of acetone
# (§2) • 1.5 parts by weight of dimethylformamide Emulsifier: 0.5 part by weight of alkylaryl polyglycol ether
# (§3) To produce a suitable preparation of active compound, 1 part by weight of active compound is mixed with the stated amount of solvent and emulsifier, and the concentrate is diluted with emulsifier-containing water to the desired concentration.
# Cabbage leaves (Brassica oleracea) are treated by spraying with the active ingredient formulation of the desired concentration and populated with larvae of the mustard beetle (Phaedon cochleariae) while the leaves are still moist.
# After the desired period of time, the kill in % is determined. 100% means that all beetle larvae have been killed; 0% means that none of the beetle larvae have been killed. The kill rates determined are entered into Colby's formula (see above).
# [2] = tested on: Tetranychus urticae; assay: Tetranychus urticae test (OP-resistant/spray treatment); settings: bean leaf discs sprayed
# Procedure: as §1, §2, §3
# Discs of bean leaves (Phaseolus vulgaris) which are infested by all stages of the greenhouse red spider mite (Tetranychus urticae) are sprayed with an active compound preparation of the desired concentration.
# After the desired period of time, the effect in % is determined. 100% means that all of the spider mites have been killed; 0% means that none of the spider mites have been killed.
# [3] = tested on: Myzus persicae; assay: Myzus persicae test on cabbage; settings: cabbage leaves sprayed
# Procedure: as §1, §2, §3
# Cabbage leaves (Brassica oleracea) which are heavily infested by the green peach aphid (Myzus persicae) are treated by spraying with the active compound preparation of the desired concentration.
# (§4) After the desired period of time, the kill in % is determined. 100% means that all of the aphids have been killed; 0% means that none of the aphids have been killed. The kill rates determined are entered into Colby's formula (see above).
# [4] = tested on: Spodoptera frugiperda; assay: Spodoptera frugiperda larvae test; settings: cabbage leaves sprayed
# Procedure: as §1, §2, §3
# Cabbage leaves (Brassica oleracea) are treated by being sprayed with the preparation of active compound of the desired concentration and are populated with larvae of the armyworm (Spodoptera frugiperda) while the leaves are still moist.
# After the desired period of time, the kill in % is determined. 100% means that all caterpillars have been killed; 0% means that none of the caterpillars have been killed. The kill rates determined are entered into Colby's formula (see above).
# [5] = tested on: Myzus persicae; assay: Myzus persicae test on bell pepper; settings: 0.8 g/ha, bell-pepper plants sprayed
# Procedure: Solvent: 7 parts by weight of dimethylformamide
# Emulsifier: 2 parts by weight of alkylaryl polyglycol ether
# as §3
# Bell-pepper plants (Capsicum annuum) which are heavily infested by the green peach aphid (Myzus persicae) are treated by spraying with the active compound preparation of the desired concentration.
# as §4
compound,measurement,setting,value
"O=C1C=C(N(CCF)Cc2ccc(Cl)nc2)CO1 [compound (I-4), 4-{[(6-chloropyrid-3-yl)methyl](2-fluoroethyl)amino}furan-2(5H)-one]",Kill in % after 6d,[1]; 20 g/ha,0%
same,Kill in % after 6d,[1]; 100 g/ha,0%
same,Kill in % after 2d,[2]; 100 g/ha,0%
same,Kill in % after 1d,[3]; 4 g/ha,30%
same,Kill in % after 2d,[4]; 20 g/ha,0%
same,Kill in % after 2d,[4]; 100 g/ha,0%
CC1(C)C(C=C(Cl)Cl)C1C(=O)OC(C#N)c1cccc(Oc2ccccc2)c1 (stereo not drawn) [cypermethrin],Kill in % after 1d,[3]; 0.16 g/ha,10%
same,Kill in % after 1d,[3]; 0.8 g/ha,20%
"CN(Cc1cnc(Cl)c(F)c1)C1=CC(=O)OC1 [compound (I-6), 4-{[(6-chloro-5-fluorpyrid-3-yl)methyl](methyl)amino}furan-2(5H)-one]",Kill in % after 2d,[1]; 4 g/ha,0%
same,Kill in % after 2d,[1]; 100 g/ha,0%
same,Kill in % after 6d,[1]; 100 g/ha,0%
same,Kill in % after 2d,[4]; 20 g/ha,0%
same,Kill in % after 2d,[4]; 100 g/ha,0%
CC1(C)C(C=C(Cl)Cl)C1C(=O)OC(C#N)c1cccc(Oc2ccccc2)c1 (stereo not drawn) [alpha-cypermethrin],Kill in % after 1d,[3]; 0.16 g/ha,30%
CC1(C)[C@H](C=C(Cl)Cl)[C@H]1C(=O)OCc1c(F)c(F)cc(F)c1F [transfluthrin],Kill in % after 6d,[5],0%
CC1(C)[C@H](C(=O)O[C@@H](C#N)c2cccc(Oc3ccccc3)c2)[C@@H]1/C=C(\Cl)C(F)(F)F [gamma-cyhalothrin],Kill in % after 1d,[3]; 0.16 g/ha,0%
same,Kill in % after 2d,[4]; 4 g/ha,67%
Cc1c(COC(=O)C2C(/C=C(\Cl)C(F)(F)F)C2(C)C)cccc1-c1ccccc1 (stereo not drawn) [bifenthrin],Kill in % after 2d,[1]; 4 g/ha,67%
same,Kill in % after 2d,[2]; 4 g/ha,30%
same,Kill in % after 6d,[3]; 0.032 g/ha,0%
same,Kill in % after 1d,[3]; 0.16 g/ha,20%
CC1(C)C(/C=C(\Cl)C(F)(F)F)C1C(=O)OC(C#N)c1cccc(Oc2ccccc2)c1 (stereo not drawn) [lambda-cyhalothrin],Kill in % after 2d,[1]; 0.16 g/ha,33%
same,Kill in % after 2d,[2]; 4 g/ha,0%
same,Kill in % after 1d,[3]; 0.032 g/ha,0%
same,Kill in % after 2d,[4]; 4 g/ha,33%
"O=C1C=C(N(Cc2ccc(Cl)nc2)CC(F)F)CO1 [compound (I-5), 4-{[(6-chloropyrid-3-yl)methyl](2,2-difluoroethyl)amino}furan-2(5H)-one]",Kill in % after 6d,[5],45%
same,Kill in % after 2d,[1]; 20 g/ha,0%
same,Kill in % after 1d,[3]; 0.8 g/ha,10%
same,Kill in % after 6d,[3]; 0.8 g/ha,10%
same,Kill in % after 2d,[4]; 20 g/ha,0%
same,Kill in % after 2d,[4]; 100 g/ha,0%
CC1(C)[C@H](C(=O)OC(C#N)c2cccc(Oc3ccccc3)c2)[C@@H]1C=C(Br)Br (stereo partly drawn) [deltamethrin],Kill in % after 6d,[3]; 0.032 g/ha,0%
same,Kill in % after 2d,[4]; 0.8 g/ha,50%
CC1(C)C(C=C(Cl)Cl)C1C(=O)OC(C#N)c1ccc(F)c(Oc2ccccc2)c1 (stereo not drawn) [beta-cyfluthrin],Kill in % after 2d,[1]; 0.8 g/ha,50%
same,Kill in % after 2d,[1]; 4 g/ha,83%
same,Kill in % after 1d,[3]; 0.16 g/ha,40%
